# Columns and labels:
# [1] = system: adult, cycling rat; experiment: Embryo implantation in the cycling rat after subcutaneous treatment; assay type: in vivo; details: 20 mg/kg s.c. once daily d1-d8, mating d7, uteri checked d16, female Wistar rats, 5 animals/group; vehicle 10 ± 4
# Procedure: A total of 15 sexually mature female Wistar rats with a body weight of 200-220 g and a 4-day cycle were used. The animals were divided in one control group (group 1) and two treatment groups (group 2-3) consisting of 5 animals/group, respectively.
# Starting in metestrus (d1) animals were treated for eight days (d1-d8), once daily, subcutaneously with the test compounds (treatment groups) or vehicle (control group), respectively. At day 7, at proestrus, animals were mated. The success of mating was checked by the presence of sperms in the vagina at d8. At d16 animals were sacrificed. Uteri were removed and checked for the presence of implantation sides. In each animal the number of implantation sides were determined.
# Control group 1 received vehicle alone [(ethanol/arachisoil, 1+9 (v/v)].
# Group 2 received 20 mg/kg FF-MAS, prepared in an ethanol/arachisoil vehicle.
# Group 2 received 20 mg/kg FF-MAS-succinate, prepared in an ethanol/arachisoil vehicle.
# [2] = system: mouse oocytes; experiment: Implantation rate after IVF: mouse oocyte cultivation with FF-MAS, in vitro-fertilization, tubal retransfer to foster mothers; assay type: cell-based
# Procedure: Oocytes are obtained by puncture using a fine needle from the ovaries of mice primed with PMSG (pregnant mare serum gonadotrophin). The oocytes are cultivated for approx. 20 hours in a defined hypoxanthine-containing culture medium (Hx medium, see above) with FF-MAS (10 μM) (37° C.). The control oocytes are cultivated in defined culture medium without FF-MAS for the same period of time. Both the FF-MAS-oocytes and the control oocytes have begun meiosis maturation at the end of the culture period. All oocytes punctured on one day (from various mice) are pooled and distributed over the two study groups.
# The oocytes cultivated in the mouse oocyte assay are further processed in this experiment. They are washed briefly 3× in a defined medium not containing FF-MAS and subsequently transferred into an IVF medium not containing FF-MAS. Then a defined number of capacitated sperms (obtained from the epididymides of a male mouse) is added and the oocytes are incubated with the sperms for approx. 4 hours in an incubator at 37° C. Following incubation the number of inseminated oocytes is counted.
# 1 day before the retransfer female recipient mice (foster mothers) in pre-estrus are mated with vasectomized males in order to trigger pseudogestation. One day later a vaginal check is performed. Animals with positive, sperm-free vaginal prop (successful mating) enter the study. This day is day 0 of gestation (=day 0 after the sterile copulation). Approx 10-15 inseminated oocytes are transferred into one tube (right) to the foster mothers on day 0 after the sterile copulation under anesthetization. The contralateral tube remains unused (check for pseudogestation). Only inseminated oocytes from the IVF experiment are used.
# Retransfer is repeated until approx. 20 evaluable litters (with viable fetuses) have been obtained in all study groups (10 μM FF-MAS and one untreated control group).
# The foster mothers are killed on day 17 of gestation. Uteri are removed. The number of viable and dead fetuses, the number of foster mothers, the number of pregnant foster mothers and the number of pregnant foster mothers with viable fetuses and with total fetal death, respectively, are counted.
# [3] = system: mouse oocytes; details: added to the culture medium; Hegele-Hartung et al. 1998; cited from earlier work
# [4] = system: human oocytes; details: Grøndahl et al. 1999; cited from earlier work
SMILES,Number of implantation sides [x ± sd] d16 [1],"Number of pregnant foster mothers [n] ([2]; 10 μM FF-MAS in culture medium, 69 foster mothers, control 43 of 153)","Number of pregnant foster mothers [%] ([2]; 10 μM FF-MAS in culture medium, % of foster mothers, control 28)","Number of pregnant foster mothers with viable fetuses [%] ([2]; 10 μM FF-MAS in culture medium, % of pregnant foster mothers, control 47)","Numbers of pregnant foster mothers with total fetal death [%] ([2]; 10 μM FF-MAS in culture medium, % of pregnant foster mothers, control 54)","Number of pregnant foster mothers with viable fetuses [n] ([2]; 10 μM FF-MAS in culture medium, control 20)","Numbers of pregnant foster mothers with total fetal death [n] ([2]; 10 μM FF-MAS in culture medium, control 23)","Number of viable fetuses [n] ([2]; 10 μM FF-MAS in oocyte culture medium approx. 20 h, IVF, retransfer, foster mothers killed day 17 of gestation, 69 foster mothers, control 45 of 153)",fertilization rate [3],nuclear and cytoplasmic maturation [4]
CC(C)=CCCC(C)C1CC=C2C3=C(CCC21C)C1(C)CCC(OC(=O)CCC(=O)O)C(C)(C)C1CC3 (centres unmarked) [FF-MAS-succinate],12 ± 2,–,–,–,–,–,–,–,–,–
"CC(C)=CCC[C@@H](C)[C@H]1CC=C2C3=C(CC[C@@]21C)[C@@]1(C)CC[C@H](O)C(C)(C)[C@@H]1CC3 [FF-MAS, 4,4-dimethyl-5a-cholesta-8,14,24-triene-3β-ol]",15 ± 3,27,40,78,22,21,6,42,increase the fertilization rate,improvement in nuclear and cytoplasmic maturation

# Source: patent US20030153808A1, “Implantation rate using ff-mas” (priority 2000, published 2003)
